We go through four compounds from patent US20080096807A1, “Cyclic vasoactive intestinal peptide receptor-2 agonists” (priority 2006, published 2008).

Bridge positions count the residues as written; N and C are the ends. Square brackets hold non-standard residues; d marks the D form. Peptide text beside a SMILES is read from it. ξ: configuration not given here. Thr(3ξ) = CC(O)[C@H](N)C(=O)O; αMeV = CC(C)[C@](C)(N)C(=O)O; Nle = CCCC[C@H](N)C(=O)O

In the series the target is T1, human neutrophil elastase (Homo sapiens, UniProt P08246).
T1 sequence (P08246 30-247 limits assumed): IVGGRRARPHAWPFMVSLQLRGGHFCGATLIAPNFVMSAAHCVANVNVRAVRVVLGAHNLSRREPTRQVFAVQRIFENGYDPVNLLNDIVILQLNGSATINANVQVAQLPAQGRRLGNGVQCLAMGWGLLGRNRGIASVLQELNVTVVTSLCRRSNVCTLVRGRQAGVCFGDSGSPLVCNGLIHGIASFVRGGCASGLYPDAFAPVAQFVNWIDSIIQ
Description: Peptide stability to neutrophil elastase (RP HPLC ESI MS). Particulars: halftime with human neutrophil elastase 1 to 2 μg/mL in PBS, ambient temperature, normalized to halftime of the reference standard.
Description: The proteolytic stabilities of peptide analogs were established with reversed phase high pressure liquid chromatography (RP HPLC) electrospray ionization mass spectrometry (ESI MS). Peptide analogs were incubated with human neutrophile elastase and the quantity of undigested analogs was determined by ESI MS at appropriate time points. Multiple peptide analogs could be included in one experiment as long as they could be differentiated by HPLC retention time and/or by molecular weight. Ac-His Ac-[sequence]Nle-[sequence]NH2 was used in all experiments as a control and as a reference standard. The simultaneous use of multiple peptide analogs together with a reference standard allowed for compensation for variations in the proteolytic fidelity of the enzyme over the multiple experiments. Integrated ion currents obtained for the individual undigested peptide were used for quantitation. For calculation of halftime first-order kinetic behavior was assumed and all calculations were normalized to the halftime of the reference standard.
Peptide stock solutions were prepared in water to a concentration of 2.5 mg/mL. Unless in use, all stock solutions were kept at −20° C. […] Concentrations of the peptide analogs were adjusted accordingly. In order to do the proteolytic digestion, peptides were dissolved in phosphate buffered saline (PBS) to a concentration of 0.1 mg/mL. As many as six different peptide analogs were mixed into one 50 μL reaction volume. The reference standard was added to all experiments as a reference and internal standard. Elastase (Human Neutrophil, Calbiochem, Cat # 324681) was added from an elastase stock solution to a concentration of 1 to 2 μg/mL. Different amounts of the enzyme were chosen to compensate for the differences in the proteolytic stabilities of the peptide analogs. Previously, a stock solution of elastase was prepared in water at a concentration of 1 mg/mL. Small aliquots of the enzyme stock solution were kept at −20° C. to better maintain the enzyme activity by limiting the number of thaw and freeze cycles.
The digestion was done at ambient temperature in an autosampler tube within the autosampler of the HPLC system (Agilent 1100 Series). For a time course, 5 μL aliquots were injected in 70 minute intervals onto the reversed phase HPLC column (Phenomenex, Luna C18, 3μ, 100 ↑, 150×2.00 mm). For the starting time point an aliquot was injected just prior to the addition of the proteolytic enzyme. A total of eight time points could be recorded from one experiment, including the starting point. Peptides were separated on the reversed phase column with a 50 minute gradient of 5% to 30% organic phase. The aqueous phase was 0.05% (v/v) of trifluoroacetic acid in water and the organic one was 0.045% (v/v) of trifluoroacetic acid in acetonitrile. Absorbances were recorded at 214 and 280 nm respectively. All of the column effluent was introduced into the turbo V source of the electrospray ionization mass spectrometer (ABI 4000 QTrap LC/MS/MS System). Mass spectra were acquired in Q3MS mode in a mass range to include all triply charged ions of the non degraded peptide analogs. Care was taken to assure that peptide analogs could clearly be differentiated either by the chromatographic retention time or by the difference in molecular weight. Relative quantities of the respective undigested peptide analog were calculated from the integrated total ion current. A window of 2.5 Da was chosen and the manufacturer's software was used to integrate the individual ion currents. The overall halftime of an individual peptide analog was calculated by assuming first-order kinetic behavior and was normalized with respect to the halftime of the reference standard.
Compound `CCCC[C@H](NC(=O)[C@H](CCC(N)=O)NC(=O)[C@H](CCCCN)NC(=O)[C@H](CCCNC(=N)N)NC(=O)[C@H](CC(C)C)NC(=O)[C@H](CCCCN)NC(=O)[C@@H](NC(=O)[C@H](Cc1ccc(O)cc1)NC(=O)[C@H](CC(N)=O)NC(=O)[C@H](CCC(=O)O)NC(=O)[C@@H](NC(=O)[C@H](Cc1ccccc1)NC(=O)[C@@](C)(NC(=O)[C@H](C)NC(=O)[C@H](CC(=O)O)NC(=O)[C@H](CO)NC(=O)[C@H](Cc1c[nH]cn1)NC(C)=O)C(C)C)C(C)O)C(C)O)C(=O)N[C@@H](C)C(=O)N[C@@H](C)C(=O)N[C@@H](CCCCN)C(=O)N[C@H]1CCCCNC(=O)C[C@@H](C(=O)N[C@@H](CC(C)C)C(=O)N[C@@H](CC(C)C)C(=O)N[C@@H](CCCCN)C(=O)NCC(=O)NCC(=O)N[C@H](C(N)=O)C(C)O)NC(=O)[C@H](CC(N)=O)NC(=O)[C@H](CC(C)C)NC(=O)[C@H](Cc2ccc(O)cc2)NC1=O` (stereo partly drawn) [Example 20, Ac-His-Ser-Asp-Ala-MeVal-Phe-Thr-Glu-Asn-Tyr-thr-Lys-Leu-Arg-Lys-Gln-Nle-Ala-Ala-Lys-Lys-Tyr-Leu-Asn-Asp-Leu-Leu-Lys-Gly-Gly-Thr-NH2] (Ac-HSDA[αMeV]F[Thr(3ξ)]ENY[Thr(3ξ)]KLRKQ[Nle]AAKKYLNDLLKGG[Thr(3ξ)]-NH2; lactam 21-25) came in with a Relative elastase stability of 3.4.

Take `CCCC[C@H](NC(=O)[C@H](CCC(N)=O)NC(=O)[C@H](CCCCN)NC(=O)[C@H](CCCNC(=N)N)NC(=O)[C@H](CC(C)C)NC(=O)[C@H](CCCCN)NC(=O)[C@@H](NC(=O)[C@H](Cc1ccc(O)cc1)NC(=O)[C@H](CC(N)=O)NC(=O)[C@H](CCC(=O)O)NC(=O)[C@@H](NC(=O)[C@H](Cc1ccccc1)NC(=O)[C@@](C)(NC(=O)[C@H](C)NC(=O)[C@H](CC(=O)O)NC(=O)[C@H](C)NC(=O)[C@H](Cc1c[nH]cn1)NC(C)=O)C(C)C)C(C)O)C(C)O)C(=O)N[C@@H](C)C(=O)N[C@@H](C)C(=O)N[C@@H](CCCCN)C(=O)N[C@H]1CCCCNC(=O)C[C@@H](C(=O)N[C@@H](CC(C)C)C(=O)N[C@@H](CCCCN)C(=O)N[C@@H](CCCCN)C(=O)NCC(=O)NCC(=O)N[C@H](C(N)=O)C(C)O)NC(=O)[C@H](CC(N)=O)NC(=O)[C@H](CC(C)C)NC(=O)[C@H](Cc2ccc(O)cc2)NC1=O` (stereo partly drawn) [Example 21, Ac-His-Ala-Asp-Ala-MeVal-Phe-Thr-Glu-Asn-Tyr-Thr-Lys-Leu-Arg-Lys-Gln-Nle-Ala-Ala-Lys-Lys-Tyr-Leu-Asn-Asp-Leu-Lys-Lys-Gly-Gly-Thr-NH2]: the Relative elastase stability worked out at 5.7.

With `CCCC[C@H](NC(=O)[C@H](CCCNC(=N)N)NC(=O)[C@H](CCCCN)NC(=O)[C@H](CCCNC(=N)N)NC(=O)[C@H](CC(C)C)NC(=O)[C@H](CCCCN)NC(=O)[C@@H](NC(=O)[C@H](Cc1ccc(O)cc1)NC(=O)[C@H](CC(N)=O)NC(=O)[C@H](CCC(=O)O)NC(=O)[C@@H](NC(=O)[C@H](Cc1ccccc1)NC(=O)[C@@](C)(NC(=O)[C@H](C)NC(=O)[C@H](CC(=O)O)NC(=O)[C@H](CO)NC(=O)[C@H](Cc1c[nH]cn1)NC(C)=O)C(C)C)C(C)O)C(C)O)C(=O)N[C@@H](C)C(=O)N[C@@H](C)C(=O)N[C@@H](CCCCN)C(=O)N[C@H]1CCCCNC(=O)C[C@@H](C(=O)N[C@@H](CC(C)C)C(=O)N[C@@H](CCCCN)C(=O)N[C@@H](CCCCN)C(=O)NCC(=O)NCC(=O)N[C@H](C(N)=O)C(C)O)NC(=O)[C@H](CC(N)=O)NC(=O)[C@H](CC(C)C)NC(=O)[C@H](Cc2ccc(O)cc2)NC1=O` (stereo partly drawn) [Example 22, Ac-His-Ser-Asp-Ala-MeVal-Phe-Thr-Glu-Asn-Tyr-Thr-Lys-Leu-Arg-Lys-Arg-Nle-Ala-Ala-Lys-Lys-Tyr-Leu-Asn-Asp-Leu-Lys-Lys-Gly-Gly-Thr-NH2], the Relative elastase stability stood at 1.8.

`CCCC[C@H](NC(=O)[C@H](CCC(N)=O)NC(=O)[C@H](CCCCN)NC(=O)[C@H](CCCNC(=N)N)NC(=O)[C@H](CC(C)C)NC(=O)[C@H](CCCCN)NC(=O)[C@@H](NC(=O)[C@H](Cc1ccc(O)cc1)NC(=O)[C@H](CC(N)=O)NC(=O)[C@H](CCC(=O)O)NC(=O)[C@@H](NC(=O)[C@H](Cc1ccccc1)NC(=O)[C@@](C)(NC(=O)[C@H](C)NC(=O)[C@H](CC(=O)O)NC(=O)[C@H](C)NC(=O)[C@H](Cc1c[nH]cn1)NC(C)=O)C(C)C)C(C)O)C(C)O)C(=O)N[C@@H](C)C(=O)N[C@@H](C)C(=O)N[C@@H](CCCCN)C(=O)N[C@H]1CCCCNC(=O)C[C@@H](C(=O)N[C@@H](CC(C)C)C(=O)N[C@@H](CC(C)C)C(=O)N[C@@H](CCCCN)C(=O)NCC(=O)NCC(=O)N[C@H](C(N)=O)C(C)O)NC(=O)[C@H](CC(N)=O)NC(=O)[C@H](CC(C)C)NC(=O)[C@H](Cc2ccc(O)cc2)NC1=O` (stereo partly drawn) [Example 23, Ac-His-Ala-Asp-Ala-MeVal-Phe-Thr-Glu-Asn-Tyr-Thr-Lys-Leu-Arg-Lys-Gln-Nle-Ala-Ala-Lys-Lys-Tyr-Leu-Asn-Asp-Leu-Leu-Lys-Gly-Gly-Thr-NH2] displayed a Relative elastase stability of 3.6.
